Reference: patent US12642274B2, “Insect neuropeptides 8” (Solasta Bio Limited, priority 2023, dated 2026)
Square brackets hold non-standard residues; d marks the D form. pGlu = O=C1CC[C@@H](C(=O)O)N1

Tests used:
Spodoptera frugiperda = assay: Lepidoptera artificial diet assay; assay type: in vivo; settings: unformulated peptide 1×10^−4M in artificial diet, L1 larvae, one larva per cell, n=10, 168 hrs; compared to negative control vehicle and DDT (FIG. 4)
Source text: Frontier Lepidoptera Artificial diet was made up by preparing agar at 1% and then mixing it with artificial diet powder. Peptide solution was aliquoted in 10 cells and diet poured straight onto it. The final concentration of the peptide was 1×10^−4M, and each peptide was aliquoted in 10 cells. Once the dict solidified and cooled down, one L1 Spodoptera frugiperda larvae was infested in each cell. The trays were sealed with heat and let larva were allowed to develop for 168 hrs. Finally, pupation and mortality were scored for. Lepidoptera artificial diet assays were performed with SB-P-86, and compared to a negative control vehicle and the insecticide dichlorodiphenyltrichloroethane (DDT).

Plutella xylostella = assay: Leaf dip assay (IRAC method 018, Chinese cabbage); assay type: in vivo; settings: unformulated peptide 2×10^−4 M in 0.5% DMSO, 8% ACN, 0.1% Tween-80 in water, 120 hours; Acetamiprid 0.005% as comparator; conducted by FERA (FIG. 5)
Procedure: Peptides were tested in a leaf dip bioassay using Chinese cabbage on IRAC method 018 against Plutella xylostella. Peptide concentration at 2×10^−4 M in a solution of 0.5% DMSO, 8% ACN, 0.1% Tween-80 in water. Acetamiprid (pesticide) was tested at 0.005%. Vehicle control comprised 0.5% DMSO, 8% ACN, 0.1% Tween-80 in water. Peptide SB-P-86 was tested by a Contract Research Organisation, FERA Science Ltd. The activity of SB-P-86 is shown in FIG. 5; SB-P-86 has good activity whilst being eco-friendly and targeted to specific pests unlike broad spectrum chemical insecticides such as Acetamiprid.

[Pyr]-LTFTSSWGG-[NH2] ([pGlu]LTFTSSWGG-NH2; SMILES CC(C)C[C@H](NC(=O)[C@@H]1CCC(=O)N1)C(=O)N[C@H](C(=O)N[C@@H](Cc1ccccc1)C(=O)N[C@H](C(=O)N[C@@H](CO)C(=O)N[C@@H](CO)C(=O)N[C@@H](Cc1c[nH]c2ccccc12)C(=O)NCC(=O)NCC(N)=O)[C@@H](C)O)[C@@H](C)O) [SB-P-86, AKH peptide according to the invention]
activity (pupation and mortality scored) (Spodoptera frugiperda): much higher activity
activity (leaf dip bioassay) (Plutella xylostella): good activity
